In patent US8647643B2, “Farnesoid-X-receptor antagonist as a vaccine adjuvant” (priority 2008, dated 2014):

How the values were obtained:
rHBsAg antigen = test: Anti-HBsAg antibody titers after immunization of rats with rHBsAg plus BB adjuvant; assay type: in vivo; conditions: Wistar rats, rHBsAg 10 μg intramuscular day 0, serum every 14 days; BB-50 uM, BB-5 uM
[1] = tested on: rDNA coding Rabies antigen; set-up: species or system Swiss albino mice; conditions: mouse, in vivo
[2] = tested on: inactivated rabies virus (Rabipur); set-up: species or system mice; conditions: mouse, in vivo
[3] = tested on: Recombinant NE protein of hepatitis E virus; test: Sero-conversion after recombinant NE protein of hepatitis E virus mixed with BB; assay type: in vivo; conditions: 1 μg NE protein with 5 μM of BB, intramuscularly
[4] = tested on: cancer cells (Mia-paca 2); test: Interferon gamma ELISPOT on splenocytes after immunization with cancer cells with/without BB; assay type: in vivo, mice
[5] = Water solubility (statement); assay type: physicochemical

**Q.** Which “ranking as adjuvant (anti-HBsAg antibodies)” value (rHBsAg antigen) does the source give for `CC(=O)C1=CC[C@H]2[C@@H]3CC=C4C[C@@H](O)CC[C@]4(C)[C@H]3CC[C@]12C` [BB, 3β-hydroxy-5,16-pregnadien-20-one] here?
**A.** Its value is “lead adjuvants”.

**Q.** And the “day on which antibody titers are protective, after 1st dose of vaccine” value [1]?
**A.** The value was 28 days.

**Q.** And the “time the titers remained protective” value [1]?
**A.** The value was “about 100 days”.

**Q.** What about the “antibody response compared with rabies vaccine without adjuvant” value [2] of the same compound?
**A.** Its value is “faster and stronger response”.

**Q.** What about the “day on which titers were protective” value [2] of the same compound?
**A.** The value was 14 days.

**Q.** And the sero-conversion ([3]; after 2nd injection given 2 weeks later)?
**A.** Its sero-conversion is 100%.

**Q.** What about the sero-conversion ([3]; day 14 after 1st injection) of the same compound?
**A.** Its sero-conversion is 60%.

**Q.** What about the “effect of the generated immune response on tumor size” value ([4]; BB with cancer cells (Mia-paca 2)) of the same compound?
**A.** Its value is “reduction of tumor size”.

**Q.** What about the “IFN-g ELISPOT response relative to the mycobacterium adjuvanted group” value ([4]; doses day 1 and day 21, splenocytes day 28) of the same compound?
**A.** Its value is “more then three times greater response”.

**Q.** What about the water solubility [5] of the same compound?
**A.** Its water solubility is “water insoluble”.
